Active and inactive are the calls of the source.
Experiments:
[1] = molecular target: G-protein coupled receptor 35 (Homo sapiens, UniProt Q9HC97); assay: GPR35 antagonists blocking zaprinast-driven arrestin recruitment, primary screen, imaging, U2OS, beta-arrestin-GFP, zaprinast agonist (AID 2058); assay type: functional;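 further: antagonist potency meaning inhibition of agonist-induced arrestin redistribution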
[2] = molecular target: 26S proteasome non-ATPase regulatory subunit 14 (Homo sapiens, UniProt O00487); assay: inhibition of proteasome subunit RPN11 – biochemical, fluorescence polarization, uHTS hits, confirmation (AID 602368); assay type: functional
Sequence of 26S proteasome non-ATPase regulatory subunit 14 (O00487 whole entry): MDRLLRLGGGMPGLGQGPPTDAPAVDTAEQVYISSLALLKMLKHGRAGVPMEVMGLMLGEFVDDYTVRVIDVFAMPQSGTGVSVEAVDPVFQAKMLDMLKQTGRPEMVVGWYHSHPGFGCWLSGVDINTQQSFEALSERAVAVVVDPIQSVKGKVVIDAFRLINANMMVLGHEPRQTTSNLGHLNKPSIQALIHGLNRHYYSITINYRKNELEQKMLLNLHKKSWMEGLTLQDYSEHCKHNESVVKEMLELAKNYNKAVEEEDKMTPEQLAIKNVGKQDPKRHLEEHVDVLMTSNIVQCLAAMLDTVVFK

[3] = molecular target: 72 kDa type IV collagenase (Homo sapiens, UniProt P08253); assay: Dose Response validation of uHTS RPN11 inhibitor hits using a MMP-2 Fluorescence assay.; assay type: functional
Sequence of 72 kDa type IV collagenase (P08253 whole entry): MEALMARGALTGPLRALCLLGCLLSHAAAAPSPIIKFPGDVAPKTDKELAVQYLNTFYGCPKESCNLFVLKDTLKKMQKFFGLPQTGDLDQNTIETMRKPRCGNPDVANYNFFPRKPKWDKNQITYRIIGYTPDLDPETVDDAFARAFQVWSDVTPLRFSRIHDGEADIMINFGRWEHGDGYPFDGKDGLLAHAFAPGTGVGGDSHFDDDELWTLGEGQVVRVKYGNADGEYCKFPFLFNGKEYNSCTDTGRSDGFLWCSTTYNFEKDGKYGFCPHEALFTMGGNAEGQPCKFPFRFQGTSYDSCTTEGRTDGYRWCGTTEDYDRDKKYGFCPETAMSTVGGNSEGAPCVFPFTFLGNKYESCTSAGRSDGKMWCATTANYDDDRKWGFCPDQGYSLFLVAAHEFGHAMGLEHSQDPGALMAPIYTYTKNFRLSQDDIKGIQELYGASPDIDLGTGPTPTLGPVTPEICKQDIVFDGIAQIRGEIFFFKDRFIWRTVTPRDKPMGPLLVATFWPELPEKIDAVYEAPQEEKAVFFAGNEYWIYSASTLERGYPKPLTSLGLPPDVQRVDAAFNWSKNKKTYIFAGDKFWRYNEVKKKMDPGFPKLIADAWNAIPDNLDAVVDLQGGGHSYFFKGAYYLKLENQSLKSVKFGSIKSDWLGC

Prothrombin = Prothrombin (Bos taurus, UniProt P00735); assay: thrombin inhibition, dose response, biochemical, fluorescence polarization, uHTS hits (AID 602369); assay type: functional
[4] = molecular target: T1, Histone-lysine N-methyltransferase NSD2 (Homo sapiens, UniProt O96028); assay type: biochemical
T1 sequence (O96028 whole entry): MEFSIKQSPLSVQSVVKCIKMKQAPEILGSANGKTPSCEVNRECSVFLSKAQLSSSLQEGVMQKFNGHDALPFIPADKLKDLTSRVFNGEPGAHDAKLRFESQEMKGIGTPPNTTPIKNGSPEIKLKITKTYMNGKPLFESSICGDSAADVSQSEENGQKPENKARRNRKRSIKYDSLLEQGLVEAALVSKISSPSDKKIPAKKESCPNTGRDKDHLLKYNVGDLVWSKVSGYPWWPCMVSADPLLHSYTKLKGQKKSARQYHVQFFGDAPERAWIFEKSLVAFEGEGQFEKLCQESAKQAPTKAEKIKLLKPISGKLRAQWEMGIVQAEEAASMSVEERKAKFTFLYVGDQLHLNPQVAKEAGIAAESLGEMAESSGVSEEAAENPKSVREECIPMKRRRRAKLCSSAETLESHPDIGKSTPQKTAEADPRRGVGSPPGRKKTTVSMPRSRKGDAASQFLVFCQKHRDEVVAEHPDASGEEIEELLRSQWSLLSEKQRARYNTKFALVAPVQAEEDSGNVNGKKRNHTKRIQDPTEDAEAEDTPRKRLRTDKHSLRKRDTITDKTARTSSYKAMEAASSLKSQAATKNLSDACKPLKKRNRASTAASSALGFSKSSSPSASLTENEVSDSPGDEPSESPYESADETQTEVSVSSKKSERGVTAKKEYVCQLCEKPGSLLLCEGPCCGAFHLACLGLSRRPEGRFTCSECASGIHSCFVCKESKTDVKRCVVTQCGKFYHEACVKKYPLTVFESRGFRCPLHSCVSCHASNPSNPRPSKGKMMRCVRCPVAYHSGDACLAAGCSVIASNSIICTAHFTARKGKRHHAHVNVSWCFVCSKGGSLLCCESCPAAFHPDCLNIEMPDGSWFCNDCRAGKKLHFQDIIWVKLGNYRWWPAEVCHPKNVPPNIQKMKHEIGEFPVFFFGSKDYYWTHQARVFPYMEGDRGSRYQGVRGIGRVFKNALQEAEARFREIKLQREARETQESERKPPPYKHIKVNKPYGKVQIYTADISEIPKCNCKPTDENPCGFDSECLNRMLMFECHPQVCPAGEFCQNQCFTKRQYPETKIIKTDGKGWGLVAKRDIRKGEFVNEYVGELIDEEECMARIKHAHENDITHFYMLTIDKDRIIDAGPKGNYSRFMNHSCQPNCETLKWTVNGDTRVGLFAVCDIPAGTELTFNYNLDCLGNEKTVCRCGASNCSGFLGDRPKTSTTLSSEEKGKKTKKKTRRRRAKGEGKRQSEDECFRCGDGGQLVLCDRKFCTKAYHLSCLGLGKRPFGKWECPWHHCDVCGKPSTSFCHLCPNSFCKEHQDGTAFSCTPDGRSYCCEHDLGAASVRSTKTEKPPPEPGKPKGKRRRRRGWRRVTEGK

Aminopeptidase N = molecular target: T2, Aminopeptidase N (Plasmodium falciparum FcB1/Columbia, UniProt O96935); assay: P. falciparum M1AAP inhibitors, biochemical, fluorogenic H-Leu-NHMec substrate, 1536-well (AID 1445); parameters: species or system Plasmodium falciparum 3D7, 3D7
T2 sequence (O96935 whole entry): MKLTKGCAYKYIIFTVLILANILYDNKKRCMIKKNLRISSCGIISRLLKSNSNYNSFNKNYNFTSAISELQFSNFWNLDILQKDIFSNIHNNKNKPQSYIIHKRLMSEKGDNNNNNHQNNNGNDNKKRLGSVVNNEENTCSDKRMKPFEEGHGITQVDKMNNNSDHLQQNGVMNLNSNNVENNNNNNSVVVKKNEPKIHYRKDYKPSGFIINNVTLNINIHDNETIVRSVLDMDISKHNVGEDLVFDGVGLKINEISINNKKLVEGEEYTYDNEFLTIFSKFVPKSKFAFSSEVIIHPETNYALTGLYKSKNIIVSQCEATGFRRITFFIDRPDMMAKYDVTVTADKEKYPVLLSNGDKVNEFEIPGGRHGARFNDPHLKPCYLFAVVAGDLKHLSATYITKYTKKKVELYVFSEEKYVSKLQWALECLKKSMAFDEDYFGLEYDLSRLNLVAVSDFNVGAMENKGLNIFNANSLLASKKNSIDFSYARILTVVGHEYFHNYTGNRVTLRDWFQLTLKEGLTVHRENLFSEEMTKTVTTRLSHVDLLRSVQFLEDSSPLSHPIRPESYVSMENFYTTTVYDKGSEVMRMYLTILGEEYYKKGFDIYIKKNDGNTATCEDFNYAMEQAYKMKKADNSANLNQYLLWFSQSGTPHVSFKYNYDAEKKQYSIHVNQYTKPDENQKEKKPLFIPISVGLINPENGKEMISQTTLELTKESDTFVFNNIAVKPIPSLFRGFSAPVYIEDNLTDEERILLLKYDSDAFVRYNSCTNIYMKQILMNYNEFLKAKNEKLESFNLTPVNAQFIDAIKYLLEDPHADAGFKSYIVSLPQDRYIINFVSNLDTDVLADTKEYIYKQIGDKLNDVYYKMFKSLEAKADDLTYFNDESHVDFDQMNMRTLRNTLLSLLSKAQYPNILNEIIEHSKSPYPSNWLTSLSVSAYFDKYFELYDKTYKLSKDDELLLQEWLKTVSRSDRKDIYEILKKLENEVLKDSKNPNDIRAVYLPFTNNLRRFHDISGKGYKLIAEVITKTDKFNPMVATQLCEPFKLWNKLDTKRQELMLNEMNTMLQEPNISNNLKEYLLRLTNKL

[5] = molecular target: Transitional endoplasmic reticulum ATPase (Homo sapiens, UniProt P55072, C522A); assay: C522A mutant p97 ATPase inhibitors, dose response, counter-screen for p97 inhibitor project, biochemical, luminescence (AID 1544)
Sequence of Transitional endoplasmic reticulum ATPase (Homo sapiens, UniProt P55072, C522A) (P55072 2-806 C522A limits assumed): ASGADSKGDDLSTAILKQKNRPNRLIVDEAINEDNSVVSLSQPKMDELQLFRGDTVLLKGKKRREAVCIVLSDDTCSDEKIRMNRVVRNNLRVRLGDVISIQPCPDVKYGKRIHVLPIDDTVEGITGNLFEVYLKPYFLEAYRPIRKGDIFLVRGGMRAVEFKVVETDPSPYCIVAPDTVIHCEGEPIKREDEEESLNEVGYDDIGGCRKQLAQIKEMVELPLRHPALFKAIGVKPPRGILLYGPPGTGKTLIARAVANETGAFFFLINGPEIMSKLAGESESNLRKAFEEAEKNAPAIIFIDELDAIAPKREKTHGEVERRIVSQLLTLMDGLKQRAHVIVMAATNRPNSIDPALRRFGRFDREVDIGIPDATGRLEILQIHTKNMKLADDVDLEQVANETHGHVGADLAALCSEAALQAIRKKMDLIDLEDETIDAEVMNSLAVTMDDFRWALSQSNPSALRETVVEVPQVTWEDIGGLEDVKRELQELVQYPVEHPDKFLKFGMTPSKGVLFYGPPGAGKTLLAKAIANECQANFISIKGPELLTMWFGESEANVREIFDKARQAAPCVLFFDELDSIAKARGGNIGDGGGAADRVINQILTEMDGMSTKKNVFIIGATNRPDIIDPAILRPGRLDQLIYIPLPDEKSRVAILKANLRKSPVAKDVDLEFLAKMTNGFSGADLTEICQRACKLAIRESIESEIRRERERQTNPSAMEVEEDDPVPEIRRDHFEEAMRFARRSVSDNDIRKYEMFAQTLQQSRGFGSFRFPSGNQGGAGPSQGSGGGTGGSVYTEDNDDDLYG

[6] = molecular target: Transitional endoplasmic reticulum ATPase (Homo sapiens, UniProt P55072); assay: p97 ATPase inhibitors, dose response, biochemical (AID 1534)
Sequence of Transitional endoplasmic reticulum ATPase (Homo sapiens, UniProt P55072) (P55072 whole entry): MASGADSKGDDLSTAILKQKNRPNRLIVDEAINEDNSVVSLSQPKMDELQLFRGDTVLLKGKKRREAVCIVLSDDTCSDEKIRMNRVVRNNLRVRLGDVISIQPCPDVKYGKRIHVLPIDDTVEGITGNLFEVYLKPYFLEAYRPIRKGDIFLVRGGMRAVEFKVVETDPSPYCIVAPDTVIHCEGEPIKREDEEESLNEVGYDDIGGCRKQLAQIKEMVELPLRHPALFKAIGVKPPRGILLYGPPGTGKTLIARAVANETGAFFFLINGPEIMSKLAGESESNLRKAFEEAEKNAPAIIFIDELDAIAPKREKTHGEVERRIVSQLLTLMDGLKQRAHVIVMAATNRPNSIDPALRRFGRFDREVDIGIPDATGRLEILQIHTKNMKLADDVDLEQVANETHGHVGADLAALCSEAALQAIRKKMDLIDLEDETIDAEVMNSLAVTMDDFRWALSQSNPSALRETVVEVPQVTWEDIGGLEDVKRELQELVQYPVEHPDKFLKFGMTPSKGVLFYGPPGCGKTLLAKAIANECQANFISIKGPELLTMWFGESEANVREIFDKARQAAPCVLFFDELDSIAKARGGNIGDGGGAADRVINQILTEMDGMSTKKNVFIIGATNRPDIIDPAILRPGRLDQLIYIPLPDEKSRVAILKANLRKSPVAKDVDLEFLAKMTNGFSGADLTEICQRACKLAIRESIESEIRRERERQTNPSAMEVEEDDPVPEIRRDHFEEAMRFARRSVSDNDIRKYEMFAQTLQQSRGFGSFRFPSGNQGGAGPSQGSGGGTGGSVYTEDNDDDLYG

[7] = molecular target: Signal transducer and activator of transcription 3 (Homo sapiens, UniProt P40763); assay: STAT3 activators, late-stage profile, late-stage follow-up, cell-based, STAT1 reporter, BCL3 qPCR, cytotoxicity, panel member STAT3 Activation (AID 2049)
Sequence of Signal transducer and activator of transcription 3 (P40763 whole entry): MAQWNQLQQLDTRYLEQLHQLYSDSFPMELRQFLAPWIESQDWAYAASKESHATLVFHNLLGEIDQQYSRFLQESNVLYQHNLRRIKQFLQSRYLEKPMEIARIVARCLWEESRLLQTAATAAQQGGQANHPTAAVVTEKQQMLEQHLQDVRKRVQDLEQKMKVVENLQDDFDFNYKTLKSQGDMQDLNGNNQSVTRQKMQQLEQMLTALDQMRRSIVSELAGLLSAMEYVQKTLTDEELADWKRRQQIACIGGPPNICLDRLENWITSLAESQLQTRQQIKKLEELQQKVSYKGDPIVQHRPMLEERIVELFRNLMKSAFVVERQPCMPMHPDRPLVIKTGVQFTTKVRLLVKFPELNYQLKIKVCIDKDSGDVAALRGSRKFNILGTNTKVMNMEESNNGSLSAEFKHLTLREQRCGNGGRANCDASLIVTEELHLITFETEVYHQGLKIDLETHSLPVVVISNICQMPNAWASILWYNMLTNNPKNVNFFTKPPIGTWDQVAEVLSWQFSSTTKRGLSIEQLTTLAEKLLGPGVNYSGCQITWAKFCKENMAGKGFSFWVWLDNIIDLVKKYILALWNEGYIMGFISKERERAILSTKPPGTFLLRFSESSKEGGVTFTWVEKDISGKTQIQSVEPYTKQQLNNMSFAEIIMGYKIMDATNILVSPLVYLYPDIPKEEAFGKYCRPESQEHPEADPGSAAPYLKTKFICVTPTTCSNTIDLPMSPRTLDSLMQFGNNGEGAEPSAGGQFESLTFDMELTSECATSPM

[8] = molecular target: T3, Alkaline phosphatase, tissue-nonspecific isozyme (Homo sapiens, UniProt P05186)
T3 sequence (P05186 whole entry): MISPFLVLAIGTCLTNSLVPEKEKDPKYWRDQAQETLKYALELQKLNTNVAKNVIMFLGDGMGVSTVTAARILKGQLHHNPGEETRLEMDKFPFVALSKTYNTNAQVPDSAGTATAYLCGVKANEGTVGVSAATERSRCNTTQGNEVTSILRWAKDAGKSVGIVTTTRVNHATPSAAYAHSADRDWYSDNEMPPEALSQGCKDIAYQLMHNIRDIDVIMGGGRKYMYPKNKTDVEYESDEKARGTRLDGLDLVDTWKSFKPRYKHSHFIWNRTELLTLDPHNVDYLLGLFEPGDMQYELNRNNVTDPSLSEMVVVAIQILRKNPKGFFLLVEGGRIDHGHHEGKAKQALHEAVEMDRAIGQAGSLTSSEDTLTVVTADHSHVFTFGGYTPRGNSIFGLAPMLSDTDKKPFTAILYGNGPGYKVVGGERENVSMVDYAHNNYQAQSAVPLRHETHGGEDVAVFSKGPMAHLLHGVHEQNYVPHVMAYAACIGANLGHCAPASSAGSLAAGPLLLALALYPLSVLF

[9] = molecular target: Lysosomal acid glucosylceramidase (Homo sapiens, UniProt P04062); assay: Dose response cell-based high throughput screening assay to identify enhancers of beta-glucosidase activity. [Related pubchem assays: 784 ]; assay type: functional
Sequence of Lysosomal acid glucosylceramidase (P04062 whole entry): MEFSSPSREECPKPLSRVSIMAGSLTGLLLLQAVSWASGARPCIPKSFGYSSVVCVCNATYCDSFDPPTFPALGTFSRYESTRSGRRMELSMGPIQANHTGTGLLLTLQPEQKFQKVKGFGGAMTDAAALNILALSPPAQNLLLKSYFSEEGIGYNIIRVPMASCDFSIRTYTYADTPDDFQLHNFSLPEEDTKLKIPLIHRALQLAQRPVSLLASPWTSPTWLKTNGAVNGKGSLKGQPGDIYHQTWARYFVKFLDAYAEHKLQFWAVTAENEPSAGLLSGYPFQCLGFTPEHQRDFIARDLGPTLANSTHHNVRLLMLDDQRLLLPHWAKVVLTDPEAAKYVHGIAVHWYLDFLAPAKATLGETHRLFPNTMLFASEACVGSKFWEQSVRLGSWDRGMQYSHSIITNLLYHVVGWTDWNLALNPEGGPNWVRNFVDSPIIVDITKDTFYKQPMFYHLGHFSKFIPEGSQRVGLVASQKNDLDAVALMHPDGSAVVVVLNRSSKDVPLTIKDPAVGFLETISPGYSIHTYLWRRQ

Bcl-2-like protein 10 = Bcl-2-like protein 10 (Homo sapiens, UniProt Q9HD36); assay: displacers of TR3 peptide from Bcl-B, primary screen, selectivity assay for Bfl-1 inhibitor project, biochemical, fluorescence polarization, FITC-TR3 peptide (AID 748);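 further: fluorescence polarization from a fluorescein-labelled TR3 peptide binding purified Bcl-B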
Sequence of Bcl-2-like protein 10 (Q9HD36 whole entry, the tested form may be a part): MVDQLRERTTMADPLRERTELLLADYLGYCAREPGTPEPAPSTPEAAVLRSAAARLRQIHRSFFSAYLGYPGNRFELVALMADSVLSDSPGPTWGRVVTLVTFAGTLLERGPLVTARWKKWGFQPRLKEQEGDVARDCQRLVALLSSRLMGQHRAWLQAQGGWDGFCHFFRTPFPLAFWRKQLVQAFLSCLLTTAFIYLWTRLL

[10] = molecular target: T4, RNA-binding protein pos-1 (Caenorhabditis elegans, UniProt G5EF15); assay: inhibitors of POS-1/mex-3 RNA binding, dose response, biochemical, fluorescence polarization (AID 1964);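 further: purified POS-1 fused to maltose binding protein made in E. coli; potency of compounds blocking POS-1 binding to fluorescent RNA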
T4 sequence (G5EF15 whole entry): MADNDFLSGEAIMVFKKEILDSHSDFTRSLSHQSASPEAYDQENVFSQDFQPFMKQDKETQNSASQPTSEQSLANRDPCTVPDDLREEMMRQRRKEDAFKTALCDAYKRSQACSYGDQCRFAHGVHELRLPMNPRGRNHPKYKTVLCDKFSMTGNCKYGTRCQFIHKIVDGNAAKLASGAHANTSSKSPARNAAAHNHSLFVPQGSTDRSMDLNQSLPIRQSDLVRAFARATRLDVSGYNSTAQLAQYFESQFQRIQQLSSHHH

[11] = molecular target: T5, Zinc finger protein mex-5 (Caenorhabditis elegans, UniProt Q9XUB2); assay: MEX-5/TCR-2 RNA interaction inhibitors, dose response, biochemical, C. elegans, fluorescence polarization (AID 1960)
T5 sequence (Q9XUB2 whole entry): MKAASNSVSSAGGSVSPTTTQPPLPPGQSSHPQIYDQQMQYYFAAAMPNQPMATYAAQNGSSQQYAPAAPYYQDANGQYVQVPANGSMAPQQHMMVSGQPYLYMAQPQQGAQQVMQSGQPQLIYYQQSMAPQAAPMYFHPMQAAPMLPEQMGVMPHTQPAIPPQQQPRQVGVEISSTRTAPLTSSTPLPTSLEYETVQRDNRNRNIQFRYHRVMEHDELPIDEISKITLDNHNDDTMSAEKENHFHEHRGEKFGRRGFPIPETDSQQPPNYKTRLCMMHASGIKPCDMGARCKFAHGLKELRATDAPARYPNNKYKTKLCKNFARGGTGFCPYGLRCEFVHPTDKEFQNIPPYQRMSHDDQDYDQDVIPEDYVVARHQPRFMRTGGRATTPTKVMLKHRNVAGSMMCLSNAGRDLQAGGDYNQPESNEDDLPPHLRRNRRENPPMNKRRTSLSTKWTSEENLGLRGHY

Estrogen receptor = molecular target: T6, Estrogen receptor (Homo sapiens, UniProt P03372);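 further: potency for inhibiting coactivator peptide recruitment to the receptor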
T6 sequence (P03372 whole entry): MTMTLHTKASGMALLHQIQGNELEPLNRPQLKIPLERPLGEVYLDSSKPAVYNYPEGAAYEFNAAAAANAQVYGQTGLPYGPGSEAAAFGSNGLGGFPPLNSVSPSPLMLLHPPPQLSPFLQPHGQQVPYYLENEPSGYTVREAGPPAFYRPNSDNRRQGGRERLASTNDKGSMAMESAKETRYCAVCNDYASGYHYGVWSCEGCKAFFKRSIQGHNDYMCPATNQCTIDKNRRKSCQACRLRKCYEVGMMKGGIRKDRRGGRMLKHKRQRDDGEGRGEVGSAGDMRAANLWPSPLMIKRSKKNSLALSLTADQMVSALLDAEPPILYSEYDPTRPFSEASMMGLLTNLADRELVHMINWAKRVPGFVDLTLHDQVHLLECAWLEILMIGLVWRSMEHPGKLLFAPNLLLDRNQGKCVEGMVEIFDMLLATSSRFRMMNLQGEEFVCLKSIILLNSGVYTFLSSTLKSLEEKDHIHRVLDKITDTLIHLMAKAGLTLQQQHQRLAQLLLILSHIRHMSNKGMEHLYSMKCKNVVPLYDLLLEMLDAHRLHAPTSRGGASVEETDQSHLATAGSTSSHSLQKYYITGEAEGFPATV

Estrogen receptor beta = Estrogen receptor beta (Homo sapiens, UniProt Q92731); assay: ERβ–SRC-3 coactivator interaction inhibitors, confirmation, orthogonal assay, biochemical, ELISA, streptavidin-HRP readout (AID 1060)
Sequence of Estrogen receptor beta (Q92731 whole entry): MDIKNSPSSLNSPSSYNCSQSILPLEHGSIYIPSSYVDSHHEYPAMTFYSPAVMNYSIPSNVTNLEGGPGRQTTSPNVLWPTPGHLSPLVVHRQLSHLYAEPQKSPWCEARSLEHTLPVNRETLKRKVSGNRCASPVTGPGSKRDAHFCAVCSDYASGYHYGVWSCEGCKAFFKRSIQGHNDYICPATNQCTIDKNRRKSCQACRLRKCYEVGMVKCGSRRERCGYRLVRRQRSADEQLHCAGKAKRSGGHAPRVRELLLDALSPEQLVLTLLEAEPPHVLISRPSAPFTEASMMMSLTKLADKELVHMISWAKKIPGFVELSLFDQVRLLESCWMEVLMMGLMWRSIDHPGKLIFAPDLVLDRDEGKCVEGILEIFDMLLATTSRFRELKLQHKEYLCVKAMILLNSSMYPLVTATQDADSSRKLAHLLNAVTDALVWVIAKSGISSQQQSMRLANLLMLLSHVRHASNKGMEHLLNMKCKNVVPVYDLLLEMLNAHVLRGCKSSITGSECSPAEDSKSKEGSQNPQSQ

[12] = Cytotoxicity screening for potential Inhibitors of Bacterial Capsule Biogenesis. [Related pubchem assays (depositor defined):AID488970]; assay type: functional
Trypanosoma cruzi = assay: growth inhibition of intracellular Trypanosoma cruzi, dose response, cell-based, plate reader, dry powder, set 3 (AID 493197); assay type: functional

Sequence of G-protein coupled receptor 35 (Q9HC97 whole entry): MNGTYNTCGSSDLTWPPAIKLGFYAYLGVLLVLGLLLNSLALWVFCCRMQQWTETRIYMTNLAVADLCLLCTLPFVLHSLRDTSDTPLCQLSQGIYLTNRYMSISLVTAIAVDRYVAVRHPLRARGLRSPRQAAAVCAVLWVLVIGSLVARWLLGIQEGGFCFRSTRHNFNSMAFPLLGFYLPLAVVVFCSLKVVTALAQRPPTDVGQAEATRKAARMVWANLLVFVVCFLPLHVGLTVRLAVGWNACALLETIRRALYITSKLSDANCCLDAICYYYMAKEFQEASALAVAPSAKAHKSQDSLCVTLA

Structure (SMILES): O=C(/C=C/c1ccco1)Nc1cccc(C(=O)Nc2ccccc2C(=O)O)c1
- IC50 [1]: < 0.5 µM (active)
- IC50 [2]: 23.1 µM (active)
- IC50 [3]: 97.4 µM (active)
- IC50 (Prothrombin): 39.8 µM (active)
- AC50 [4]: 18.6 µM (active)

Structure (SMILES): COc1ccccc1C(=O)Oc1cc(N)n(S(=O)(=O)c2ccc(C)cc2)n1
- IC50 (Aminopeptidase N): 99.9 µM (active)
- IC50 [5]: > 50 µM (not active)
- IC50 [6]: > 50 µM (not active)

Structure (SMILES): CCCc1cc(C(=O)Nc2cc(OC)c(Cl)cc2OC)no1
- EC50 [7]: 0.00815 µM (active)

Structure (SMILES): CCC(C)N1CC(=O)C(c2nc3ccccc3[nH]2)=C1N (centres undefined)
- EC50 [8]: 98.9 µM (not active)

Structure (SMILES): CC(C)n1c(S)nc2c1c(=O)[nH]c(=O)n2C
- EC50 [9]: > 50 µM (not active)

Structure (SMILES): COc1ccccc1NCCC(=O)OCC(=O)NCc1ccco1
- IC50 (Bcl-2-like protein 10): 69.1 µM (inactive)

Structure (SMILES): CCC1=NN2C(=N)/C(=C\c3ccc(SCc4ccco4)o3)C(=O)N=C2S1
- EC50 [10]: 4.36 µM (active)
- EC50 [11]: 6.85 µM (active)
- IC50 (Estrogen receptor): 21 µM (active)
- IC50 (Estrogen receptor beta): > 50 µM (not active)
- CC50 [12]: > 100 µM (active)
- AC50 [4]: 16.2 µM (active)

Structure (SMILES): CCCN1CCC(N2CCCC(C(=O)N(C)CCc3ccc(OC)c(OC)c3)C2)CC1 (centres undefined)
- AC50 (Trypanosoma cruzi): 16.4 µM (active)

Source: ChEMBL document CHEMBL1201862, “PubChem BioAssay data set” (2004)
